Among the data in ChEMBL document CHEMBL1137040, “Estrone formate: a novel type of irreversible inhibitor of human steroid sulfatase” (Bioorg Med Chem Lett, 2004) are IC50 values, retold here.

The test addresses T1, Steryl-sulfatase (Homo sapiens, UniProt P08842).
T1 sequence (P08842 whole entry): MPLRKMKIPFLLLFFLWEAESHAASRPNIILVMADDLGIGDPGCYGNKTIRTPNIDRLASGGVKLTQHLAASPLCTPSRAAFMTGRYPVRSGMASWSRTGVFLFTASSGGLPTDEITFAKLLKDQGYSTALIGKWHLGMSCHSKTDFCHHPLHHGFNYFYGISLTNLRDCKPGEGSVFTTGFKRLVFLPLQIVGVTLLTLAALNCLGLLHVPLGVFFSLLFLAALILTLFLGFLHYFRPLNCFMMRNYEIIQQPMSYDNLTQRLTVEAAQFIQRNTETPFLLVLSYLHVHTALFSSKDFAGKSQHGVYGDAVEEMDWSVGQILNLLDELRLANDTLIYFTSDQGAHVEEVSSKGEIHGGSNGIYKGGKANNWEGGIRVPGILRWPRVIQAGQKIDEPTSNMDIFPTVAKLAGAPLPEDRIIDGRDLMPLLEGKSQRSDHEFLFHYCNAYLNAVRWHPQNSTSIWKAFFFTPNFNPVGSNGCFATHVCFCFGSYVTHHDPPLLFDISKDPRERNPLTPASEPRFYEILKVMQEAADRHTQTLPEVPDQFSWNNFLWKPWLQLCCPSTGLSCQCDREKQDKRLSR
As to the kind of experiment: Inhibition of purified human steroid sulfatase.

In turn, `O=COc1ccc2nc(C=C3C4CC5CC(C4)CC3C5)oc2c1` displayed an IC50 of 1.5 µM. Consider `Oc1ccc2nc(C=C3C4CC5CC(C4)CC3C5)oc2c1`, for which the IC50 was 0.26 µM. As for `C[C@]12CC[C@H](OC=O)C=C1CCC1C2CC[C@]2(C)C(=O)CCC12` (stereo partly drawn), the figure is greater than 10 µM.

In the case of `C[C@]12CC[C@@H]3c4ccc(OC(=O)NCc5ccccc5)cc4CCC3[C@@H]1CCC2=O` (single isomer, unassigned), the half-inhibitory concentration (IC50) was greater than 50 µM. The molecule `CC(C)(C)OC(=O)NCC(=O)Oc1ccc2c(c1)CCC1[C@@H]2CC[C@]2(C)C(=O)CC[C@@H]12` (single isomer, unassigned) had an IC50 greater than 50 µM. As for `C[C@]12CC[C@@H]3c4ccc(OC=O)cc4CCC3[C@@H]1CCC2=O` (single isomer, unassigned), the figure is 0.42 µM; as for `C[C@]12CC[C@@H]3c4ccc(OC(=O)CN)cc4CCC3[C@@H]1CCC2=O` (single isomer, unassigned), greater than 50 µM.

The molecule `C[C@]12CC[C@@H]3c4ccc(OC#N)cc4CCC3[C@@H]1CCC2=O` (single isomer, unassigned) showed a 50% inhibitory concentration (IC50) greater than 50 µM.

Molecule `CC(=O)Oc1ccc2c(c1)CCC1[C@@H]2CC[C@]2(C)C(=O)CC[C@@H]12` (single isomer, unassigned) returned an IC50 greater than 50 µM.

The molecule `C[C@]12CC[C@@H]3c4ccc(OC(=N)S)cc4CCC3[C@@H]1CCC2=O` (single isomer, unassigned) returned an IC50 greater than 50 µM. `C[C@]12CC[C@@H]3c4ccc(OC(N)=O)cc4CCC3[C@@H]1CCC2=O` (single isomer, unassigned) showed an IC50 greater than 50 µM. The same measure for `C[C@]12CC[C@@H]3c4ccc(OS(N)(=O)=O)cc4CCC3[C@@H]1CCC2=O` (single isomer, unassigned) [EMATE]: 0.05 µM. The same measure for `O=COc1ccccc1` [FORMIC ACID PHENYL ESTER]: greater than 30 µM.

For orientation: IC50 means the concentration needed to halve the response being measured. Higher therefore signals lower potency.
